From DBAASP
In brackets after ≈: the same amount, converted by molar mass.

Legend:
Assay in all cases: ≥ marks a high value that may be exact or a test limit, other limits are often not marked, values filed in µg/mL are converted to µM
[1] = tested on: Escherichia coli ATCC 25922
[2] = tested on: Staphylococcus epidermidis ATCC 12228
[3] = tested on: Pseudomonas aeruginosa PAO1
[4] = tested on: Escherichia coli
[5] = tested on: Staphylococcus aureus ATCC 29213
[6] = tested on: Escherichia coli UB1005
[7] = tested on: Staphylococcus aureus ATCC 25923
[8] = tested on: Pseudomonas aeruginosa
[9] = tested on: Staphylococcus aureus
[10] = tested on: Candida albicans
[11] = tested on: Candida albicans ATCC 90028

Structure (SMILES) | MIC [1] | MIC [4] | MIC [8] | MIC [9] | other results
CC[C@H](C)[C@H](NC(=O)CN)C(=O)NCC(=O)N[C@@H](C)C(=O)N[C@H](C(=O)N[C@@H](CC(C)C)C(=O)N[C@@H](CCCCN)C(=O)N[C@H](C(=O)N[C@@H](CC(C)C)C(=O)N[C@H](C(=O)N[C@H](C(=O)NCC(=O)N[C@@H](CC(C)C)C(=O)N1CCC[C@H]1C(=O)N[C@@H](C)C(=O)N[C@@H](CS)C(=O)N[C@H](C(=O)N[C@@H](CO)C(=O)N[C@@H](Cc1c[nH]c2ccccc12)C(=O)N[C@@H](CS)C(=O)N[C@@H](CCCCN)C(=O)N[C@@H](CCCN=C(N)N)C(=O)N[C@@H](CCCCN)C(=O)N[C@@H](CCCN=C(N)N)C(=O)N[C@@H](CCC(N)=O)C(=O)N[C@@H](CCC(N)=O)C(=O)O)[C@@H](C)CC)[C@@H](C)O)[C@@H](C)O)C(C)C)C(C)C [GIGAVLKVLTTGLPACISWCKRKRQQ] | 10 µM (≈ 28.3 µg/mL) | 20 µM (≈ 56.5 µg/mL) |  |  | MIC [5]: > 40 µM
CC[C@H](C)[C@H](NC(=O)[C@H](Cc1cnc[nH]1)NC(=O)[C@H](CCCN=C(N)N)NC(=O)[C@@H]1CCCN1C(=O)[C@@H]1CCCN1C(=O)[C@H](CCCN=C(N)N)NC(=O)[C@@H]1CCCN1C(=O)[C@H](CCCN=C(N)N)NC(=O)[C@@H]1CCCN1C(=O)[C@H](CC(C)C)NC(=O)[C@H](Cc1ccc(O)cc1)NC(=O)[C@@H]1CCCN1C(=O)[C@@H]1CCCN1C(=O)[C@H](CCCCN)NC(=O)[C@H](CC(=O)O)NC(=O)[C@@H](N)C(C)C)C(=O)N[C@@H](Cc1ccc(O)cc1)C(=O)N[C@@H](CC(N)=O)C(=O)N[C@@H](CCCN=C(N)N)C(N)=O [VDKPPYLPRPRPPRHIYNR] |  |  |  |  | MIC [6]: 0.548 µM (≈ 1.3 µg/mL); MIC [3]: 27 µM (≈ 64 µg/mL); MIC [7]: > 54 µM
CC(C)C[C@H](NC(=O)[C@H](C)NC(=O)[C@H](CC(C)C)NC(=O)[C@H](CCCCN)NC(=O)[C@H](CC(C)C)NC(=O)[C@H](C)NC(=O)[C@H](CC(C)C)NC(=O)[C@@H](N)CCCCN)C(=O)N[C@@H](CCCCN)C(=O)N[C@@H](C)C(=O)N[C@@H](Cc1c[nH]c2ccccc12)C(=O)N[C@@H](CCCCN)C(=O)N[C@@H](C)C(=O)N[C@@H](C)C(=O)N[C@@H](CC(C)C)C(=O)N[C@@H](CCCCN)C(=O)N[C@@H](CC(C)C)C(=O)N[C@@H](C)C(N)=O [KLALKLALKAWKAALKLA] |  | 3.68 µM (≈ 7.17 µg/mL) | 14.7 µM (≈ 28.7 µg/mL) | 1.84 µM (≈ 3.58 µg/mL) | 
CC[C@H](C)[C@H](NC(=O)[C@H](CCCCN)NC(=O)[C@H](CS)NC(=O)[C@H](C)NC(=O)[C@@H](NC(=O)[C@H](Cc1ccccc1)NC(=O)CNC(=O)[C@H](CC(C)C)NC(=O)CNC(=O)[C@@H](NC(=O)[C@H](CCCCN)NC(=O)CNC(=O)[C@H](CC(C)C)NC(=O)[C@H](CC(N)=O)NC(=O)[C@H](CCCCN)NC(=O)[C@H](CC(C)C)NC(=O)[C@@H](NC(=O)[C@H](CO)NC(=O)[C@H](CC(C)C)NC(=O)[C@H](CCSC)NC(=O)[C@@H](N)CO)C(C)C)C(C)C)C(C)C)C(=O)N[C@@H](CCCCN)C(=O)N[C@@H](CCCCN)C(=O)N[C@@H](CCC(N)=O)C(=O)N[C@@H](CS)C(=O)O [SMLSVLKNLGKVGLGFVACKIKKQC] |  | 10 µM (≈ 26.7 µg/mL) |  | 20 µM (≈ 53.3 µg/mL) | MIC [10]: 20 µM (≈ 53.3 µg/mL)
CC[C@H](C)[C@H](N)C(=O)N[C@@H](CC(C)C)C(=O)NCC(=O)N[C@@H](C)C(=O)N[C@H](C(=O)N[C@H](C(=O)N1CCC[C@H]1C(=O)N[C@@H](CC(C)C)C(=O)N[C@H](C(=O)N[C@@H](CO)C(=O)NCC(=O)N[C@@H](CC(C)C)C(=O)N[C@@H](CC(C)C)C(=O)N[C@@H](CO)C(=O)N[C@@H](Cc1cnc[nH]1)C(=O)N[C@@H](CC(C)C)C(N)=O)C(C)C)[C@@H](C)CC)[C@@H](C)CC [ILGAIIPLVSGLLSHL] |  | > 400 µM |  | 19.3 µM (≈ 31.2 µg/mL) | MIC [10]: 310 µM (≈ 501 µg/mL)
CC(C)C[C@H](NC(=O)[C@H](C)NC(=O)[C@H](CCCCN)NC(=O)[C@H](Cc1c[nH]c2ccccc12)NC(=O)[C@H](CC(C)C)NC(=O)[C@H](CCCCN)NC(=O)[C@H](C)NC(=O)[C@H](CC(C)C)NC(=O)[C@H](C)NC(=O)[C@H](CCCCN)NC(=O)[C@H](C)NC(=O)[C@H](CC(C)C)NC(=O)[C@H](C)NC(=O)[C@@H](N)CCCCN)C(=O)N[C@@H](C)C(=O)N[C@@H](CCCCN)C(=O)N[C@@H](C)C(=O)N[C@@H](C)C(N)=O [KALAKALAKLWKALAKAA] |  | 6 µM (≈ 11.2 µg/mL) | 24 µM (≈ 44.8 µg/mL) | 1.5 µM (≈ 2.8 µg/mL) | 
CC[C@H](C)[C@H](NC(=O)[C@H](CCCCN)NC(=O)[C@H](CC(=O)O)NC(=O)[C@H](CC(C)C)NC(=O)[C@H](CC(C)C)NC(=O)CNC(=O)[C@@H](NC(=O)[C@H](C)NC(=O)[C@H](CC(C)C)NC(=O)[C@H](CC(N)=O)NC(=O)[C@H](CCCCN)NC(=O)[C@H](C)NC(=O)[C@@H](NC(=O)[C@H](CC(N)=O)NC(=O)[C@H](CCCCN)NC(=O)[C@@H](NC(=O)[C@@H](NC(=O)[C@H](CC(=O)O)NC(=O)[C@H](CC(C)C)NC(=O)[C@H](CC(C)C)NC(=O)CN)[C@@H](C)O)[C@@H](C)CC)[C@@H](C)O)C(C)C)C(=O)N[C@@H](CCCCN)C(=O)N[C@H]1CSSC[C@@H](C(=O)O)NC(=O)CNC(=O)[C@H]([C@@H](C)O)NC(=O)[C@H](CCSC)NC(=O)[C@H](CCCCN)NC1=O [GLLDTIKNTAKNLAVGLLDKIKCKMTGC] | 3 µM (≈ 8.88 µg/mL) |  |  |  | MIC [11]: ≥ 150 µM
CC(C)C[C@H](NC(=O)[C@H](CC(N)=O)NC(=O)[C@H](Cc1c[nH]c2ccccc12)NC(=O)[C@H](CCCN=C(N)N)NC(=O)[C@H](C)NC(=O)[C@H](CCCCN)NC(=O)[C@H](CCCCN)NC(=O)CNC(=O)[C@H](CC(C)C)NC(=O)[C@H](Cc1ccc(O)cc1)NC(=O)[C@H](Cc1ccc(O)cc1)NC(=O)CNC(=O)[C@H](Cc1c[nH]c2ccccc12)NC(=O)[C@H](CO)NC(=O)[C@H](CO)NC(=O)[C@H](Cc1c[nH]c2ccccc12)NC(=O)[C@H](CC(C)C)NC(=O)[C@H](CCCCN)NC(=O)[C@@H](NC(=O)[C@@H](NC(=O)[C@H](CC(C)C)NC(=O)[C@@H](N)CC(=O)O)[C@@H](C)O)[C@@H](C)O)C(=O)O [DLTTKLWSSWGYYLGKKARWNL] |  |  |  |  | MIC [2]: 25 µM (≈ 67.2 µg/mL)

Further lines, with some results ahead:

MIC [1] | MIC [4] | MIC [8] | MIC [9] | Structure (SMILES) | other results
> 80 µM |  |  |  | CC[C@H](C)[C@H](NC(=O)CN)C(=O)N[C@@H](CCCCN)C(=O)N[C@@H](CCCCN)C(=O)N[C@@H](Cc1c[nH]c2ccccc12)C(=O)N[C@@H](CC(C)C)C(=O)N[C@@H](Cc1cnc[nH]1)C(=O)N[C@@H](CO)C(=O)N1CCC[C@H]1C(=O)N[C@@H](CCCCN)C(=O)N[C@@H](CCCCN)C(=O)N1CCC[C@H]1C(=O)NCC(=O)N[C@@H](CCCCN)C(=O)N[C@@H](CCCCN)C(=O)N[C@@H](Cc1ccccc1)C(=O)N[C@H](C(=O)N[C@@H](CCCCN)C(=O)N[C@@H](CCCCN)C(=O)N[C@H](C(=O)N[C@@H](CCSC)C(=O)N[C@@H](CC(N)=O)C(=O)N[C@@H](CO)C(N)=O)[C@@H](C)CC)C(C)C [GIKKWLHSPKKPGKKFVKKIMNS] | MIC [2]: 10 µM (≈ 26.8 µg/mL)
5.53 µM (≈ 7.99 µg/mL) |  |  |  | CC[C@H](C)[C@H](NC(=O)[C@H](CCCN=C(N)N)NC(=O)[C@@H](NC(=O)[C@H](CCCN=C(N)N)NC(=O)[C@H](Cc1c[nH]c2ccccc12)NC(=O)[C@H](Cc1ccccc1)NC(=O)[C@H](Cc1ccccc1)NC(=O)[C@@H]1CCCN1)[C@@H](C)CC)C(=O)N[C@@H](CCCN=C(N)N)C(=O)N[C@@H](CCCN=C(N)N)C(N)=O [PFFWRIRIRR] | MIC [3]: 5.53 µM (≈ 7.99 µg/mL)
 | 13 µM (≈ 33.7 µg/mL) | 13 µM (≈ 33.7 µg/mL) | 13 µM (≈ 33.7 µg/mL) | CC[C@H](C)[C@H](NC(=O)CN)C(=O)NCC(=O)N[C@@H](CCCCN)C(=O)N[C@@H](Cc1ccccc1)C(=O)N[C@@H](CC(C)C)C(=O)N[C@@H](Cc1cnc[nH]1)C(=O)N[C@H](C(=O)N[C@@H](CC(C)C)C(=O)N[C@@H](CCCCN)C(=O)N[C@H](C(=O)N[C@@H](Cc1ccccc1)C(=O)NCC(=O)N[C@@H](CCCCN)C(=O)N[C@@H](CCCCN)C(=O)N[C@@H](Cc1c[nH]c2ccccc12)C(=O)N[C@H](C(=O)NCC(=O)N[C@@H](CCC(=O)O)C(=O)N[C@H](C(=O)N[C@@H](CCSC)C(=O)N[C@@H](CC(N)=O)C(=O)N[C@@H](CO)C(N)=O)[C@@H](C)CC)C(C)C)[C@@H](C)O)[C@@H](C)O [GIGKFLHTLKTFGKKWVGEIMNS] | 
 |  | > 20 µM |  | CC[C@H](C)[C@H](NC(=O)[C@H](Cc1ccccc1)NC(=O)[C@H](CO)NC(=O)[C@H](CCCCN)NC(=O)[C@H](Cc1c[nH]c2ccccc12)NC(=O)[C@@H](N)CCCCN)C(=O)N[C@@H](CCCCN)C(=O)N[C@@H](CCCCN)C(=O)N[C@@H](CCCN=C(N)N)C(=O)N[C@H](C(=O)N[C@@H](CO)C(=O)N[C@@H](CCCCN)C(=O)N[C@@H](Cc1ccccc1)C(=O)N[C@@H](CC(C)C)C(=O)N[C@@H](Cc1cnc[nH]1)C(=O)N[C@@H](CO)C(=O)N[C@@H](C)C(=O)N[C@@H](CCCCN)C(=O)N[C@@H](CCCCN)C(=O)N[C@@H](Cc1ccccc1)C(N)=O)[C@@H](C)O [KWKSFIKKRTSKFLHSAKKF] | 
 | 40 µM (≈ 100 µg/mL) | 80 µM (≈ 200 µg/mL) | > 80 µM | CC[C@H](C)[C@H](NC(=O)CN)C(=O)NCC(=O)N[C@@H](CCCCN)C(=O)N[C@@H](Cc1ccccc1)C(=O)N[C@@H](CC(C)C)C(=O)N[C@@H](Cc1cnc[nH]1)C(=O)N[C@@H](CO)C(=O)N[C@@H](C)C(=O)N[C@@H](CCCCN)C(=O)N[C@@H](CCCCN)C(=O)N[C@@H](Cc1ccccc1)C(=O)NCC(=O)N[C@@H](CCCCN)C(=O)N[C@@H](C)C(=O)N[C@@H](Cc1c[nH]c2ccccc12)C(=O)N[C@H](C(=O)NCC(=O)N[C@@H](CCC(=O)O)C(=O)N[C@H](C(=O)N[C@@H](CCSC)C(=O)N[C@@H](CC(N)=O)C(=O)N[C@@H](CO)C(N)=O)[C@@H](C)CC)C(C)C [GIGKFLHSAKKFGKAWVGEIMNS] | 
